Experiments:
[1] = target: Macrophage colony-stimulating factor 1 receptor (Homo sapiens) (UniProt P07333)
[2] = target: Mitogen-activated protein kinase kinase kinase kinase 3 (Homo sapiens) (UniProt Q8IVH8)
[3] = target: Mitogen-activated protein kinase 15 (Homo sapiens) (UniProt Q8TD08)
[4] = target: Tyrosine-protein kinase receptor Tie-1 (Homo sapiens) (UniProt P35590)
[5] = target: Homeodomain-interacting protein kinase 3 (Homo sapiens) (UniProt Q9H422)
[6] = target: Serine/threonine-protein kinase mTOR (Homo sapiens) (UniProt P42345)
[7] = target: Calcium/calmodulin-dependent protein kinase type 1G (Homo sapiens) (UniProt Q96NX5)
[8] = target: Histamine H3 receptor (Homo sapiens) (UniProt Q9Y5N1); conditions: Compound concentration 10.0 uM
[9] = target: Mitogen-activated protein kinase kinase kinase kinase 1 (Homo sapiens) (UniProt Q92918)
[10] = target: Serine/threonine-protein kinase Nek6 (Homo sapiens) (UniProt Q9HC98)
[11] = target: Serine/threonine-protein kinase pim-3 (Homo sapiens) (UniProt Q86V86)
[12] = target: Receptor tyrosine-protein kinase erbB-4 (Homo sapiens) (UniProt Q15303)
[13] = target: Inhibitor of nuclear factor kappa-B kinase subunit beta (Homo sapiens) (UniProt O14920)
[14] = target: Serine/threonine-protein kinase TNNI3K (Homo sapiens) (UniProt Q59H18)
[15] = target: Interleukin-1 receptor-associated kinase 4 (Homo sapiens) (UniProt Q9NWZ3)
[16] = target: Mast/stem cell growth factor receptor Kit (Homo sapiens) (UniProt P10721)
[17] = target: LIM domain kinase 1 (Homo sapiens) (UniProt P53667)
[18] = system: Epidermal growth factor receptor (Homo sapiens), P00533 [UNDEFINED MUTATION]
[19] = target: Phosphatidylinositol 5-phosphate 4-kinase type-2 gamma (Homo sapiens) (UniProt Q8TBX8)
[20] = target: High affinity nerve growth factor receptor (Homo sapiens) (UniProt P04629)
[21] = system: Receptor-type tyrosine-protein kinase FLT3 (Homo sapiens), P36888 [D835V]
[22] = system: Receptor-type tyrosine-protein kinase FLT3 (Homo sapiens), P36888 [N841I]
[23] = target: Serine/threonine-protein kinase Nek5 (Homo sapiens) (UniProt Q6P3R8)
[24] = system: Receptor-type tyrosine-protein kinase FLT3 (Homo sapiens), P36888 [D835Y]
[25] = target: Calcium/calmodulin-dependent protein kinase type 1D (Homo sapiens) (UniProt Q8IU85)
[26] = target: Serine/threonine-protein kinase BRSK1 (Homo sapiens) (UniProt Q8TDC3)
[27] = target: Serine/threonine-protein kinase 10 (Homo sapiens) (UniProt O94804)
[28] = target: Serine/threonine-protein kinase Sgk2 (Homo sapiens) (UniProt Q9HBY8)
[29] = target: Beta-1 adrenergic receptor (Homo sapiens) (UniProt P08588); conditions: Compound concentration 10.0 uM
[30] = target: 5-hydroxytryptamine receptor 1A (Homo sapiens) (UniProt P08908); conditions: Compound concentration 10.0 uM
[31] = target: Myosin-IIIb (Homo sapiens) (UniProt Q8WXR4)
[32] = target: Phosphatidylinositol 4-phosphate 3-kinase C2 domain-containing subunit beta (Homo sapiens) (UniProt O00750)
[33] = target: Mitogen-activated protein kinase 13 (Homo sapiens) (UniProt O15264)
[34] = target: Non-receptor tyrosine-protein kinase TYK2 (Homo sapiens) (UniProt P29597)
[35] = system: Epidermal growth factor receptor (Homo sapiens), P00533 [UNDEFINED MUTATION]; remark: listed apart in the source
[36] = target: Cyclin-dependent kinase 11B (Homo sapiens) (UniProt P21127)
[37] = target: Serine/threonine-protein kinase D3 (Homo sapiens) (UniProt O94806)
[38] = target: Serine/threonine-protein kinase N1 (Homo sapiens) (UniProt Q16512)
[39] = target: Cyclin-dependent kinase 4 (Homo sapiens) (UniProt P11802)
[40] = target: Tyrosine-protein kinase Fer (Homo sapiens) (UniProt P16591)
[41] = target: Microtubule-associated serine/threonine-protein kinase 1 (Homo sapiens) (UniProt Q9Y2H9)
[42] = target: Myosin light chain kinase, smooth muscle (Homo sapiens) (UniProt Q15746)
[43] = target: Serine/threonine-protein kinase DCLK1 (Homo sapiens) (UniProt O15075)
[44] = target: Ephrin type-B receptor 2 (Homo sapiens) (UniProt P29323)
[45] = target: Casein kinase I isoform gamma-3 (Homo sapiens) (UniProt Q9Y6M4)
[46] = Compound concentration 1000.0 nM
[47] = Compound concentration 100.0 nM

Epidermal growth factor receptor (Homo sapiens), P00533 [UNDEFINED MUTATION], sequence (P00533 whole entry, looked up, change not shown): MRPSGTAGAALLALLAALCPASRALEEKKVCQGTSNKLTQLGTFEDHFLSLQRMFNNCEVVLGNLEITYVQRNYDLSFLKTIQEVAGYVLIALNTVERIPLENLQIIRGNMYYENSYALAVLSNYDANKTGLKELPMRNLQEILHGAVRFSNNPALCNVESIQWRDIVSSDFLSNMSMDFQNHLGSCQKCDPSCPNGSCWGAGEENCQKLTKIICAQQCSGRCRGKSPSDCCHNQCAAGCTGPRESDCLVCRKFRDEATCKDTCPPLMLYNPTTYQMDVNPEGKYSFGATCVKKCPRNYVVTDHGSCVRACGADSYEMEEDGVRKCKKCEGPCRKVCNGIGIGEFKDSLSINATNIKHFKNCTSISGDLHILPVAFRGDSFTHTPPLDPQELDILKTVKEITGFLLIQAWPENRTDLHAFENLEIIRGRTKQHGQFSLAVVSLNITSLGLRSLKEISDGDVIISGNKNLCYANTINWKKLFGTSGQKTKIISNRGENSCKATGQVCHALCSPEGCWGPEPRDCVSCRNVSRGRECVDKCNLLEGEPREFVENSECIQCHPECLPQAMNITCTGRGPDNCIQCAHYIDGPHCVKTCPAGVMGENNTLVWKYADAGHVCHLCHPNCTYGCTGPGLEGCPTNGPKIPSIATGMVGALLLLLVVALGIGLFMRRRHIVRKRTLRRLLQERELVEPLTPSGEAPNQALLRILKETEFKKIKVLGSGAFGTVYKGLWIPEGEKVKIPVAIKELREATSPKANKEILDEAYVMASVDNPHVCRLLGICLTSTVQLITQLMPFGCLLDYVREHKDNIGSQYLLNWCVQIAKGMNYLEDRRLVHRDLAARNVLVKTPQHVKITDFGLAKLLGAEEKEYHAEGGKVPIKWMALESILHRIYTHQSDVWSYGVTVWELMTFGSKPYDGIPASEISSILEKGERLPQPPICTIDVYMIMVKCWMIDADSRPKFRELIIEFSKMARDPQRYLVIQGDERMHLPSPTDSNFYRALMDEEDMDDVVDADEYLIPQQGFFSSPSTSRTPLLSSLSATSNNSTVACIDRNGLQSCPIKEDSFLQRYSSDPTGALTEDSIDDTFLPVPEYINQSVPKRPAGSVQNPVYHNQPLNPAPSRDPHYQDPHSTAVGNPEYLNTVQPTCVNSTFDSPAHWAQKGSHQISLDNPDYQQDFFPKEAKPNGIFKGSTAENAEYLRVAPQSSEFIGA
Tyrosine-protein kinase receptor Tie-1 (Homo sapiens), sequence (P35590 whole entry): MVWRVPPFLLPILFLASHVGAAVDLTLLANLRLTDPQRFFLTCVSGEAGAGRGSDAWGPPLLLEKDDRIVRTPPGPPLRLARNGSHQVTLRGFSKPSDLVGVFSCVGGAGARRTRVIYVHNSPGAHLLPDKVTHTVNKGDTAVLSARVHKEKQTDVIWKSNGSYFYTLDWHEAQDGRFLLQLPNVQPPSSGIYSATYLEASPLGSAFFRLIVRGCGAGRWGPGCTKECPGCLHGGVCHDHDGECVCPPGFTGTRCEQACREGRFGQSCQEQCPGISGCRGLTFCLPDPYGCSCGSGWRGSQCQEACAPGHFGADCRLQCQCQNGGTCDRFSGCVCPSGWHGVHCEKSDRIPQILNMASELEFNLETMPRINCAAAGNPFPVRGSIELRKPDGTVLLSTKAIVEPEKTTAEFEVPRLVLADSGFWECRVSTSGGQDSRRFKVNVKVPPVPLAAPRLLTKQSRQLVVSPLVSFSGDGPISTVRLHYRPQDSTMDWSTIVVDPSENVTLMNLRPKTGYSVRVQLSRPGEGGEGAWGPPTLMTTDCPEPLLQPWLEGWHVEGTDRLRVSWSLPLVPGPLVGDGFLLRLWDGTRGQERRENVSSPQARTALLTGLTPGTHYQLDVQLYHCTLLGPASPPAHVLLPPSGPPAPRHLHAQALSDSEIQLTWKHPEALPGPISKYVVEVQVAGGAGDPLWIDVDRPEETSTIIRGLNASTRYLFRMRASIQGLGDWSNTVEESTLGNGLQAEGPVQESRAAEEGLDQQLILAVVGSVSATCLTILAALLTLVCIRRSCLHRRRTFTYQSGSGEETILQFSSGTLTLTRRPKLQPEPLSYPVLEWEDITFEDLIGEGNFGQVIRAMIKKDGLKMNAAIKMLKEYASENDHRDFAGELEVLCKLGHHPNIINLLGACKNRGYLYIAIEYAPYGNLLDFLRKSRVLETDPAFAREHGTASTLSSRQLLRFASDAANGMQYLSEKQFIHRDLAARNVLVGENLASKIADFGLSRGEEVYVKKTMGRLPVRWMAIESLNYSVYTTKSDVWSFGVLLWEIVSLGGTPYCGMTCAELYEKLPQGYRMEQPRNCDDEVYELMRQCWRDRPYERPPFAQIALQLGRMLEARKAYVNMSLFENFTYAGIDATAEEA
Serine/threonine-protein kinase D3 (Homo sapiens), sequence (O94806 whole entry): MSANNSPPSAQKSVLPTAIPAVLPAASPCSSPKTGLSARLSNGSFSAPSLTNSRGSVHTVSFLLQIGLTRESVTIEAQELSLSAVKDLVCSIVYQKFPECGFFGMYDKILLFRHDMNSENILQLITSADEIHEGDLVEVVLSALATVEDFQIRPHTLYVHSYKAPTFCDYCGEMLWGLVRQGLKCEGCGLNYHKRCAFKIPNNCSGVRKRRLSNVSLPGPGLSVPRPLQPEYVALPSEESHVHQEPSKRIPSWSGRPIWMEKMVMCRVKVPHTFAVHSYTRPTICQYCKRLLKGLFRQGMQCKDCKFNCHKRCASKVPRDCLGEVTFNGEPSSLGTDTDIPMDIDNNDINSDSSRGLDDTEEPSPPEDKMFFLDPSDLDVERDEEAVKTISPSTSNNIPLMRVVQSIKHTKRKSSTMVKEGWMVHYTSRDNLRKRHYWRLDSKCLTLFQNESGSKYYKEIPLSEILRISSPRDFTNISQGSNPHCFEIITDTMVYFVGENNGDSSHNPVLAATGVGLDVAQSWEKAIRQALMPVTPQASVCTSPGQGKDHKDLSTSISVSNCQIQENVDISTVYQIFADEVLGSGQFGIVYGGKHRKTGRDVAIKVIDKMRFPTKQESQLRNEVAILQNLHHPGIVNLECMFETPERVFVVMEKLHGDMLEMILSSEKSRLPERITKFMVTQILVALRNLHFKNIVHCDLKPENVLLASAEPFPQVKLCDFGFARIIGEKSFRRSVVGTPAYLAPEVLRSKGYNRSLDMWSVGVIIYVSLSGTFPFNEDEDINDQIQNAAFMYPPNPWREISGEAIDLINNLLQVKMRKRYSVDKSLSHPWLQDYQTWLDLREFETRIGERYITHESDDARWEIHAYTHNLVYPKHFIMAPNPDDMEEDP
Serine/threonine-protein kinase Nek6 (Homo sapiens), sequence (Q9HC98 whole entry): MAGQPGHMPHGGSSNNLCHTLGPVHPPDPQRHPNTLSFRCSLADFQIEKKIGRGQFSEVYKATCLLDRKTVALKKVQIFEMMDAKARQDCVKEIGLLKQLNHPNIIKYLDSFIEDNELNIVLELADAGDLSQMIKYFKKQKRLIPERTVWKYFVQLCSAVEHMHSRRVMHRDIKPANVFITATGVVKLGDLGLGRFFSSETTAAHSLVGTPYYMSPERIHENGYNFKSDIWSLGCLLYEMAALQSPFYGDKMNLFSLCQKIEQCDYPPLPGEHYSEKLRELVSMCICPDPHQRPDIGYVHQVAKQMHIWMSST
Mitogen-activated protein kinase kinase kinase kinase 3 (Homo sapiens), sequence (Q8IVH8 whole entry): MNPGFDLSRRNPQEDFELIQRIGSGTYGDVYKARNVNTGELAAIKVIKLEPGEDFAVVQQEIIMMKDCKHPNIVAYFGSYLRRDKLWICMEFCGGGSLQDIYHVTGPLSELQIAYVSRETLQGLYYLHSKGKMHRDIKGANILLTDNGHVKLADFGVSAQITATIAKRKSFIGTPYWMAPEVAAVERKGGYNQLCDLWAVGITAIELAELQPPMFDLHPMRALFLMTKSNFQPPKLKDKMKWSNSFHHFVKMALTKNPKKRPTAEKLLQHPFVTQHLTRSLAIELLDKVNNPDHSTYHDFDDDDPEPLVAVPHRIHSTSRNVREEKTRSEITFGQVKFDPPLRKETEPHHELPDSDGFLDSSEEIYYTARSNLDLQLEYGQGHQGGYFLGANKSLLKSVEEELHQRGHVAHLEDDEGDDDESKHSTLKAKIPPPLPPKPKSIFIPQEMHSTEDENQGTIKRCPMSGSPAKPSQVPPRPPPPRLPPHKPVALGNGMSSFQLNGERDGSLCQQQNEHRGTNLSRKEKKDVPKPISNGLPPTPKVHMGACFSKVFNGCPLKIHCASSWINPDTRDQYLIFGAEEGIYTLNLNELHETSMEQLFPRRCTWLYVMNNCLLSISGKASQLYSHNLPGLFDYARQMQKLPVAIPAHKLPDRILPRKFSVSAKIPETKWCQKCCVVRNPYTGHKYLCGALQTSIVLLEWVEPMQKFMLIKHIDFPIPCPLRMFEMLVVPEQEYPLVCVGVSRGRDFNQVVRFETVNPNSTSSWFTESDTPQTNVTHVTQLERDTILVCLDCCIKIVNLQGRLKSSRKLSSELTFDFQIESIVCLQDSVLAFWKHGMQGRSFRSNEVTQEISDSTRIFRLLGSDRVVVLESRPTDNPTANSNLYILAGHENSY
Cyclin-dependent kinase 4 (Homo sapiens), sequence (P11802 whole entry): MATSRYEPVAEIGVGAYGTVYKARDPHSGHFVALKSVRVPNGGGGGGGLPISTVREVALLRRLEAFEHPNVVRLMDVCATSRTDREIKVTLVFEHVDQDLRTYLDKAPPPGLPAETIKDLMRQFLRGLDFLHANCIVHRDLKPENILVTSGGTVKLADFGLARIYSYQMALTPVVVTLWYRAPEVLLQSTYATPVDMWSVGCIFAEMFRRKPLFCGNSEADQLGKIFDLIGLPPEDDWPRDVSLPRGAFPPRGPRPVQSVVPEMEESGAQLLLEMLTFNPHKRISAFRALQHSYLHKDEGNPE

## C[C@H](NC(=O)Nc1cc2[nH]ncc2c(CO)n1)c1ccccn1 [ERKi-NC]
[1]; [46]
  residual activity: 100%
[2]; [46]
  residual activity: 100%
[3]; [46]
  residual activity: 100%
[4]; [46]
  residual activity: 86.8%
[5]; [46]
  residual activity: 85.1%
[6]; [46]
  residual activity: 93.1%
[7]; [46]
  residual activity: 100%
[8]
  inhibition: 21.1%
[9]; [46]
  residual activity: 93.8%
[10]; [46]
  residual activity: 100%
[11]; [46]
  residual activity: 100%
[12]; [46]
  residual activity: 100%
[13]; [46]
  residual activity: 100%
[14]; [46]
  residual activity: 100%
[15]; [46]
  residual activity: 100%
[16]; [46]
  residual activity: 71.5%
[17]; [46]
  residual activity: 100%
[18]; [46]
  residual activity: 100%
[19]; [46]
  residual activity: 100%
[20]; [46]
  residual activity: 81%
[21]; [46]
  residual activity: 88%
[22]; [46]
  residual activity: 100%
[23]; [46]
  residual activity: 84.3%
[24]; [46]
  residual activity: 96.8%
[25]; [46]
  residual activity: 100%
[26]; [46]
  residual activity: 100%
[27]; [46]
  residual activity: 95.5%
[28]; [46]
  residual activity: 100%
[29]
  inhibition: 28.2%
[30]
  inhibition: 20%
[31]; [46]
  residual activity: 67.6%
[32]; [46]
  residual activity: 100%
[33]; [46]
  residual activity: 85%
[34]; [46]
  residual activity: 69.9%
[35]; [46]
  residual activity: 100%
[36]; [46]
  residual activity: 94.2%
[37]; [46]
  residual activity: 100%
[38]; [46]
  residual activity: 93.1%
[39]; [46]
  residual activity: 74.2%
[40]; [46]
  residual activity: 88.8%
[41]; [46]
  residual activity: 100%
[42]; [46]
  residual activity: 100%
[43]; [46]
  residual activity: 71.1%
[44]; [46]
  residual activity: 100%
[45]; [46]
  residual activity: 100%

## C[C@@H](NC(=O)Nc1cc2[nH]ncc2c(CO)n1)c1ccccc1 [ERKi]
[1]; [47]
  residual activity: 89.3%
[2]; [47]
  residual activity: 84.5%
[3]; [47]
  residual activity: 37.1%
[4]; [47]
  residual activity: 71.2%
[5]; [47]
  residual activity: 96.2%
[6]; [47]
  residual activity: 71.8%
[7]; [47]
  residual activity: 70.6%
[8]
  inhibition: 7.46%
[9]; [47]
  residual activity: 96.9%
[10]; [47]
  residual activity: 98.9%
[11]; [47]
  residual activity: 82.9%
[12]; [47]
  residual activity: 97.6%
[13]; [47]
  residual activity: 100%
[14]; [47]
  residual activity: 94.6%
[15]; [47]
  residual activity: 76.1%
[16]; [47]
  residual activity: 89.5%
[17]; [47]
  residual activity: 94.1%
[18]; [47]
  residual activity: 94.6%
[19]; [47]
  residual activity: 95%
[20]; [47]
  residual activity: 90%
[21]; [47]
  residual activity: 95.2%
[22]; [47]
  residual activity: 88.2%
[23]; [47]
  residual activity: 97.6%
[24]; [47]
  residual activity: 86.2%
[25]; [47]
  residual activity: 83.3%
[26]; [47]
  residual activity: 88.4%
[27]; [47]
  residual activity: 84.8%
[28]; [47]
  residual activity: 66.7%
[29]
  inhibition: 6.72%
[30]
  inhibition: -1.87%
[31]; [47]
  residual activity: 82.5%
[32]; [47]
  residual activity: 85.7%
[33]; [47]
  residual activity: 100%
[34]; [47]
  residual activity: 94.7%
[35]; [47]
  residual activity: 92.2%
[36]; [47]
  residual activity: 97.4%
[37]; [47]
  residual activity: 100%
[38]; [47]
  residual activity: 89.3%
[39]; [47]
  residual activity: 86.6%
[40]; [47]
  residual activity: 100%
[41]; [47]
  residual activity: 93.9%
[42]; [47]
  residual activity: 83.5%
[43]; [47]
  residual activity: 90.3%
[44]; [47]
  residual activity: 83.3%
[45]; [47]
  residual activity: 87.9%

Source: ChEMBL document CHEMBL4507286 (2021)
